{
  "source": "patent US8518980B2",
  "about": "“Treatment of Duchenne muscular dystrophy” (Summit Corporation PLC, priority 2006, dated 2013)",
  "test_system": "Utrophin A promoter linked to a luciferase reporter gene (H2K/mdx/Utro A reporter cell line)",
  "assay": "Luciferase reporter assay (murine H2K cells)",
  "settings": "for activity at 10 µM: Mus musculus, H2K mdx",
  "data": [
    {"smiles": "CCCCc1nc2cc(S(=O)(=O)CC)ccc2o1", "note": "[Example 570, 2-butyl-5-(ethylsulfonyl)benzo[d]oxazole]", "values": [
      {"measurement": "activity at 10 µM", "result": "< 200", "unit": "%"}
    ]},
    {"smiles": "CCCc1nc2cc(S(=O)(=O)CC)ccc2o1", "note": "[Example 571, 5-(ethylsulfonyl)-2-propylbenzo[d]oxazole]", "values": [
      {"measurement": "activity at 10 µM", "result": "< 200", "unit": "%"}
    ]},
    {"smiles": "CCc1nc2cc(S(=O)(=O)CC)ccc2o1", "note": "[Example 572, 2-ethyl-5-(ethylsulfonyl)benzo[d]oxazole]", "values": [
      {"measurement": "activity at 10 µM", "result": "< 200", "unit": "%"}
    ]},
    {"smiles": "CCS(=O)(=O)c1ccc2ocnc2c1", "note": "[Example 573, 5-(ethylsulfonyl)benzo[d]oxazole]", "values": [
      {"measurement": "activity at 10 µM", "result": "< 200", "unit": "%"}
    ]},
    {"smiles": "CCS(=O)(=O)c1ccc2oc(S)nc2c1", "note": "[Example 574, 5-(ethylsulfonyl)benzo[d]oxazole-2-thiol]", "values": [
      {"measurement": "activity at 10 µM", "result": "< 200", "unit": "%"}
    ]},
    {"smiles": "CC(=O)Nc1cccc(-c2ccc3oc(-c4ccc(Cl)cc4)nc3c2)c1", "note": "[Example 575, N-(3-(2-(4-chlorophenyl)benzo[d]oxazol-5-yl)phenyl)acetamide]", "values": [
      {"measurement": "activity at 10 µM", "result": "> 401", "unit": "%"}
    ]},
    {"smiles": "CCNC(=O)Nc1ccc2[nH]c(C(C)(C)C)cc2c1", "note": "[Example 576, 1-(2-tert-butyl-1H-indol-5-yl)-3-ethylurea]", "values": [
      {"measurement": "activity at 10 µM", "result": "< 200", "unit": "%"}
    ]},
    {"smiles": "Nc1ccc2oc(-c3cccc4ccccc34)nc2c1", "note": "[Example 577, 2-(naphthalen-1-yl)benzo[d]oxazol-5-amine]", "values": [
      {"measurement": "activity at 10 µM", "result": "< 200", "unit": "%"}
    ]},
    {"smiles": "CCCS(=O)(=O)c1ccc2oc(-c3ccc(Cl)cc3)nc2c1", "note": "[Example 578, 2-(4-chlorophenyl)-5-(propylsulfonyl)benzo[d]oxazole]", "values": [
      {"measurement": "activity at 10 µM", "result": "< 200", "unit": "%"}
    ]},
    {"smiles": "Oc1ccc2nc(-c3ccc(Cl)cc3)oc2c1", "note": "[Example 579, 2-(4-chlorophenyl)benzo[d]oxazol-6-ol]", "values": [
      {"measurement": "activity at 10 µM", "result": "> 401", "unit": "%"}
    ]},
    {"smiles": "Cc1ccc2[nH]c(-c3ccc(NC(=O)c4ccco4)cc3)nc2c1", "note": "[Example 580, N-(4-(5-Methyl-1H-benzo[d]imidazol-2-yl)phenyl)furan-2-carboxamide]", "values": [
      {"measurement": "activity at 10 µM", "result": "301 to 400", "unit": "%"}
    ]},
    {"smiles": "O=C(c1ccccc1)c1ccc2nc(-c3ccccc3)[nH]c2c1", "note": "[Example 581, Phenyl (2-phenyl-1H-benzo[d]imidazol-6-yl)methanone]", "values": [
      {"measurement": "Activity", "setting": "Table 2, luciferase level relative to control, final concentration of 10 μM", "result": "+ (Up to 200% relative to control)"}
    ]},
    {"smiles": "COc1ccc(-c2nc3ccccc3s2)cc1", "note": "[Example 582, 2-(4-Methoxyphenyl)benzo[d]thiazole]", "values": [
      {"measurement": "activity at 10 µM", "result": "> 401", "unit": "%"}
    ]},
    {"smiles": "COc1ccc(-c2nc3ccccc3o2)cc1", "note": "[Example 583, 2-(4-Methoxyphenyl)benzo[d]oxazole]", "values": [
      {"measurement": "activity at 10 µM", "result": "301 to 400", "unit": "%"}
    ]},
    {"smiles": "COc1ccc(-c2nc3ccc([N+](=O)[O-])cc3o2)cc1", "note": "[Example 584, 2-(4-Methoxyphenyl)-6-nitrobenzo[d]oxazole]", "values": [
      {"measurement": "activity at 10 µM", "result": "301 to 400", "unit": "%"}
    ]},
    {"smiles": "O=C(Nc1ccc(-c2nc3ccccc3[nH]2)cc1)c1cccs1", "note": "[Example 585, N-(4-(1H-Benzo[d]imidazol-2-yl)phenyl)thiophene-2-carboxamide]", "values": [
      {"measurement": "activity at 10 µM", "result": "> 401", "unit": "%"}
    ]},
    {"smiles": "COc1ccc(-c2nc3cc([N+](=O)[O-])ccc3[nH]2)cc1", "note": "[Example 586, 2-(4-Methoxyphenyl)-5-nitro-1H-benzo[d]imidazole]", "values": [
      {"measurement": "activity at 10 µM", "result": "201 to 300", "unit": "%"}
    ]},
    {"smiles": "O=C(Nc1ccc(-c2nc3ccccc3[nH]2)cc1)C1CCCO1", "note": "(centres unmarked) [Example 587, N-(4-(1H-Benzo[d]imidazol-2-yl)phenyl)tetrahydrofuran-2-carboxamide]", "values": [
      {"measurement": "activity at 10 µM", "result": "301 to 400", "unit": "%"}
    ]},
    {"smiles": "Cc1ccc(-c2nc3ccccc3n2C)cc1", "note": "[Example 588, 1-Methyl-2-p-tolyl-1H-benzo[d]imidazole]", "values": [
      {"measurement": "activity at 10 µM", "result": "301 to 400", "unit": "%"}
    ]},
    {"smiles": "CC(=O)Nc1ccc(-c2nc3ccccc3o2)cc1", "note": "[Example 589, N-(4-(Benzo[d]oxazol-2-yl)phenyl)acetamide]", "values": [
      {"measurement": "activity at 10 µM", "result": "301 to 400", "unit": "%"}
    ]},
    {"smiles": "Cc1cc(C)c2nc(-c3ccc(N)cc3)oc2c1", "note": "[Example 590, 4-(4,6-Dimethylbenzo[d]oxazol-2-yl)aniline]", "values": [
      {"measurement": "activity at 10 µM", "result": "> 401", "unit": "%"}
    ]},
    {"smiles": "CC(=O)Nc1ccc(-c2nc3ccccc3[nH]2)cc1", "note": "[Example 591, N-(4-(1H-Benzo[d]imidazol-2-yl)phenyl)acetamide]", "values": [
      {"measurement": "activity at 10 µM", "result": "301 to 400", "unit": "%"}
    ]},
    {"smiles": "Nc1cc(-c2nc3ccccc3s2)ccc1Cl", "note": "[Example 592, 5-(Benzo[d]thiazol-2-yl)-2-chloroaniline]", "values": [
      {"measurement": "activity at 10 µM", "result": "> 401", "unit": "%"}
    ]},
    {"smiles": "CC(C)(C)c1ccc2oc(-c3ccc(N)cc3)nc2c1", "note": "[Example 593, 4-(5-Tert-butylbenzo[d]oxazol-2-yl)aniline]", "values": [
      {"measurement": "activity at 10 µM", "result": "301 to 400", "unit": "%"}
    ]},
    {"smiles": "Oc1cccc(-c2nc3ccccc3s2)c1", "note": "[Example 594, 3-(Benzo[d]thiazol-2-yl)phenol]", "values": [
      {"measurement": "activity at 10 µM", "result": "> 401", "unit": "%"}
    ]},
    {"smiles": "Clc1ccc(-c2nc3ccccc3s2)c(Cl)c1", "note": "[Example 595, 2-(2,4-Dichlorophenyl)benzo[d]thiazole]", "values": [
      {"measurement": "activity at 10 µM", "result": "201 to 300", "unit": "%"}
    ]},
    {"smiles": "COc1ccc(-c2nc3ccccc3s2)cc1O", "note": "[Example 596, 5-(Benzo[d]thiazol-2-yl)-2-methoxyphenol]", "values": [
      {"measurement": "activity at 10 µM", "result": "> 401", "unit": "%"}
    ]},
    {"smiles": "COc1ccc(-c2nc3ccccc3s2)cc1N", "note": "[Example 597, 5-(Benzo[d]thiazol-2-yl)-2-methoxyaniline]", "values": [
      {"measurement": "activity at 10 µM", "result": "301 to 400", "unit": "%"}
    ]},
    {"smiles": "Nc1ccc2nc(-c3cccc(Cl)c3)oc2c1", "note": "[Example 598, 2-(3-Chlorophenyl)benzo[d]oxazol-6-amine]", "values": [
      {"measurement": "activity at 10 µM", "result": "301 to 400", "unit": "%"}
    ]},
    {"smiles": "Cc1cc(-c2nc3ccccc3s2)ccc1[N+](=O)[O-]", "note": "[Example 599, 2-(3-Methyl-4-nitrophenyl)benzo[d]thiazole]", "values": [
      {"measurement": "activity at 10 µM", "result": "> 401", "unit": "%"}
    ]},
    {"smiles": "COc1cccc(-c2nc3ccccc3[nH]2)c1", "note": "[Example 600, 2-(3-Methoxyphenyl)-1H-benzo[d]imidazole]", "values": [
      {"measurement": "activity at 10 µM", "result": "201 to 300", "unit": "%"}
    ]},
    {"smiles": "Nc1ccc(-c2nc3ccccc3s2)cc1", "note": "[Example 601, 4-(Benzo[d]thiazol-2-yl)aniline]", "values": [
      {"measurement": "activity at 10 µM", "result": "301 to 400", "unit": "%"}
    ]},
    {"smiles": "Nc1cccc(-c2nc3ccccc3s2)c1", "note": "[Example 602, 3-(Benzo[d]thiazol-2-yl)aniline]", "values": [
      {"measurement": "activity at 10 µM", "result": "301 to 400", "unit": "%"}
    ]},
    {"smiles": "Cc1ccc(-c2nc3cc(N)ccc3o2)cc1C", "note": "[Example 603, 2-(3,4-Dimethylphenyl)benzo[d]oxazol-5-amine]", "values": [
      {"measurement": "activity at 10 µM", "result": "301 to 400", "unit": "%"}
    ]},
    {"smiles": "O=[N+]([O-])c1ccc2nc(-c3ccccc3)[nH]c2c1", "note": "[Example 604, 6-Nitro-2-phenyl-1H-benzo[d]imidazole]", "values": [
      {"measurement": "activity at 10 µM", "result": "301 to 400", "unit": "%"}
    ]},
    {"smiles": "Cc1ccc2[nH]c(-c3ccc([N+](=O)[O-])cc3)nc2c1", "note": "[Example 605, 5-Methyl-2-(4-nitrophenyl)-1H-benzo[d]imidazole]", "values": [
      {"measurement": "activity at 10 µM", "result": "301 to 400", "unit": "%"}
    ]},
    {"smiles": "COc1cccc(-c2nc3ccccc3s2)c1", "note": "[Example 606, 2-(3-Methoxyphenyl)benzo[d]thiazole]", "values": [
      {"measurement": "activity at 10 µM", "result": "301 to 400", "unit": "%"}
    ]},
    {"smiles": "Cc1cc(-c2nc3ccccc3o2)ccc1[N+](=O)[O-]", "note": "[Example 607, 2-(3-Methyl-4-nitrophenyl)benzo[d]oxazole]", "values": [
      {"measurement": "activity at 10 µM", "result": "> 401", "unit": "%"}
    ]},
    {"smiles": "c1ccc2sc(-c3ccc4c(c3)OCO4)nc2c1", "note": "[Example 608, 2-(Benzo[d][1,3]dioxol-5-yl)benzo[d]thiazole]", "values": [
      {"measurement": "activity at 10 µM", "result": "> 401", "unit": "%"}
    ]},
    {"smiles": "CCC(C)c1ccc2oc(-c3ccc(N)cc3)nc2c1", "note": "(centres unmarked) [Example 609, 4-(5-Sec-butylbenzo[d]oxazol-2-yl)aniline]", "values": [
      {"measurement": "activity at 10 µM", "result": "301 to 400", "unit": "%"}
    ]},
    {"smiles": "Cc1cc2nc(-c3ccc(N)cc3O)oc2cc1C", "note": "[Example 610, 5-Amino-2-(5,6-dimethylbenzo[d]oxazol-2-yl)phenol]", "values": [
      {"measurement": "activity at 10 µM", "result": "> 401", "unit": "%"}
    ]},
    {"smiles": "Cc1ccc2nc(-c3ccc(C(F)(F)F)cc3)oc2c1", "note": "[Example 611, 6-Methyl-2-(4-(trifluoromethyl)phenyl)benzo[d]oxazole]", "values": [
      {"measurement": "activity at 10 µM", "result": "301 to 400", "unit": "%"}
    ]},
    {"smiles": "Cc1ccc2oc(-c3cccs3)nc2c1", "note": "[Example 612, 5-Methyl-2-(thiophen-2-yl)benzo[d]oxazole]", "values": [
      {"measurement": "activity at 10 µM", "result": "201 to 300", "unit": "%"}
    ]},
    {"smiles": "Cc1ccc(-c2nc3ccccc3[nH]2)cc1", "note": "[Example 613, 2-p-Tolyl-1H-benzo[d]imidazole]", "values": [
      {"measurement": "activity at 10 µM", "result": "301 to 400", "unit": "%"}
    ]}
  ]
}
